Data on nine compounds can be found in patent US7868173B2, “Prodrugs of benzoquinolizine-2-carboxylic acid” (Wockhardt Limited, priority 2006, dated 2011).

Data set [1] in a line: Solubility analysis: aqueous solubility in buffer at physiological pH. In kind it is physicochemical. Conditions: 25-30° C. As for the experimental part:
Solubility analysis: Method for determining aqueous solubility at different physiological pH at 25-30° C. temperature: To accurately weighed amount of test substance, particular buffer solution was added in portion (about 50 microliter portions) at 25-30° C. temperature till solid is completely dissolved and clear solution is obtained.

The conditions of data set [2]: rats, intravenous route; cited from earlier work.
Data set [3] in a line: Pharmacokinetic (PK) study in Sprague Dawley rats, oral dose. In kind it is in vivo. Conditions: rat. The procedure: Method for pharmacokinetic (PK) study in Sprague Dawley rats: Pharmacokinetic study was conducted on male Sprague Dawley rats weighing 200-220 g fasted overnight. (2′S,5S)-9-fluoro-6,7-dihydro-8-(4-L-alaninyloxy-piperidin-1-yl)-5-methyl-1-oxo-1H,5H-benzo[i,j]-quinolizine-2-carboxylic acid methanesulfonic acid salt (A), (2′S,5S)-9-fluoro-6,7-dihydro-8-(4-L-alaninyloxy-piperidin-1-yl)-5-methyl-1-oxo-1H,5H-benzo[i,j]quinolizine-2-carboxylic acid hydrochloride salt (B) and (2′S,5S)-9-fluoro-6,7-dihydro-8-(4-L-valinyloxy-piperidin-1-yl)-5-methyl-1-oxo-1H,5H-benzo[i,j]quinolizine-2-carboxylic acid methanesulfonic acid salt (C) were dissolved in Milli Q water. Compounds A, B and C were administered at the dose of 50 mg/kg orally calculated on the basis of active ingredient. (5S)-9-fluoro -6,7-dihydro-8-(4-hydroxy-piperidin-1-yl)-5-methyl-1-oxo-1H,5H-benzo[i,j]quinolizine-2-carboxylic acid L-arginine salt (D) was dissolved in 1% Tween prior to use. Compounds A and D were administered at the dose of 200 mg/kg orally calculated on the basis of active ingredient. Dose volume was 0.5 ml/200g. Blood samples were collected at predetermined time intervals i.e. 0, 0.5, 1, 2, 4, 6 & 8 h in eppendorff vials containing 10 μl saturated solution of sodium fluoride. Plasma was collected after centrifugation of blood sample at 10000 rpm for 10 min. Plasma samples were analyzed on HPLC for determining drug levels. PK parameters AUC, Cmax were calculated by non-compartmental analysis by using Winnonlin software.

The conditions of data set [4]: repeated intravenous administration, injectable form; cited from earlier work.
Data set [5] is described as follows: Oral bioavailability in animals. In kind it is in vivo.
For data set [6] the following is noted: over the pH range 8.0-9.5 at 28° C.; cited from earlier work.
Setting [7] is: as compared to B, 50 mg/kg per os dose.
[8] abbreviates: as compared to D, 200 mg/kg per os dose.
The mark [9] stands for this setting: as compared to D, 50 mg/kg per os dose.

With `C[C@H](N)C(=O)OC1CCN(c2c(F)cc3c(=O)c(C(=O)O)cn4c3c2CC[C@@H]4C)CC1.Cl`, in data set [1], the “Solubility (mg/ml) at pH 7” value was determined as 4 mg/ml. `CC(C)[C@H](N)C(=O)OC1CCN(c2c(F)cc3c(=O)c(C(=O)O)cn4c3c2CC[C@@H]4C)CC1.CS(=O)(=O)O`: the “Solubility (mg/ml) at pH 7” value in data set [1] is reported as above 200 mg/ml. On to `CC(C)[C@H](N)C(=O)OC1CCN(c2c(F)cc3c(=O)c(C(=O)O)cn4c3c2CC[C@@H]4C)CC1` [(2′S,5S)-9-fluoro-6,7-dihydro-8-(4-L-valinyloxy-piperidin-1-yl)-5-methyl-1-oxo-1H,5H-benzo[i,j]quinolizine-2-carboxylic acid, reference compound], for which the “Solubility (mg/ml) at pH 7” value in data set [1] is listed as below 1 mg/ml. With `C[C@H]1CCc2c(N3CCC(O)CC3)c(F)cc3c(=O)c(C(=O)O)cn1c23.N=C(N)NCCC[C@H](N)C(=O)O` [(5S)-9-fluoro-6,7-dihydro-8-(4-hydroxy-piperidin-1-yl)-5-methyl-1-oxo-1H,5H-benzo[i,j]quinolizine-2-carboxylic acid L-arginine salt], the “propensity to cause phlebitis” value in data set [2] is “lower propensity to cause phlebitis”.

For `CS(=O)(=O)O.C[C@H](N)C(=O)OC1CCN(c2c(F)cc3c(=O)c(C(=O)O)cn4c3c2CC[C@@H]4C)CC1` [A, (2′S,5S)-9-fluoro-6,7-dihydro-8-(4-L-alaninyloxy-piperidin-1-yl)-5-methyl-1-oxo-1H,5H-benzo[i,j]-quinolizine-2-carboxylic acid methanesulfonic acid salt], the “Solubility (mg/ml) at pH 7” value in data set [1] is listed as above 200 mg/ml. In data set [3] (setting [7]), the “% Increase in AUC” value is reported as 175% and the “% Increase in Cmax” value was 300%. For the same compound, in data set [3] (setting [8]), the “% Increase in AUC” value worked out at 120% and the “% Increase in Cmax” value is 200%. In the case of `CC(C)[C@H](N)C(=O)OC1CCN(c2c(F)cc3c(=O)c(C(=O)O)cn4c3c2CC[C@@H]4C)CC1.CS(=O)(=O)O` [C, (2′S,5S)-9-fluoro-6,7-dihydro-8-(4-L-valinyloxy-piperidin-1-yl)-5-methyl-1-oxo-1H,5H-benzo[i,j]quinolizine-2-carboxylic acid methanesulfonic acid salt], in data set [3] (setting [9]), the “% Increase in AUC” value was found to be 92% and the “% Increase in Cmax” value is recorded as 97%. As to `C[C@H]1CCc2c(N3CCC(O)CC3)c(F)cc3c(=O)c(C(=O)O)cn1c23.N=C(N)NCCC[C@H](N)C(=O)O.O.O.O.O` [S-(−)-9-fluoro-6,7-dihydro-8-(4-hydroxypiperidin-1-yl)-5-methyl-1-oxo-1H,5H-benzo[i,j]quinolizine-2-carboxylic acid L-arginine salt tetrahydrate], the venous inflammation result in data set [4] is “not causing venous inflammation”. Besides, in data set [5], the oral bioavailability entry is recorded as “poor”. Regarding `C[C@H]1CCc2c(N3CCC(O)CC3)c(F)cc3c(=O)c(C(=O)[O-])cn1c23.[Na+]` [S-(−)-9-fluoro-6,7-dihydro-8-(4-hydroxypiperidin-1-yl)-5-methyl-1-oxo-1H,5H-benzo[i,j]quinolizine-2-carboxylic acid sodium salt], in data set [2], the “propensity to cause phlebitis” value is on record as “high propensity to cause phlebitis”. With “S-(−)-9-fluoro-6,7-dihydro-8-(4-hydroxypiperidin-1-yl)-5-methyl-1-oxo-1H,5H-benzo[i,j]quinolizine-2-carboxylic acid”, the “Solubility (mg/ml) at pH 7” value in data set [1] is below 1 mg/ml. The oral bioavailability entry in data set [5] was “poor”. Besides, in data set [6], the aqueous solubility – broadly, the dissolved amount per volume that the medium holds – was 800 to 2000 µg/mL.
